Assay results reported in article PMC8691691 (ACS Chemical Neuroscience, 2021).
Positions count from the first letter of the chain named.

Tests used:
[1] = biological target: T1, GlyT2 S481G mutant (Rattus norvegicus, UniProt P58295, S481G); assay: [3H]glycine transport by GlyT2 mutant in COS7 cells; assay type: cell-based
T1 construct: expressed in transfected cells; host or cells: COS7
T1 sequence (P58295 1-799 S481G): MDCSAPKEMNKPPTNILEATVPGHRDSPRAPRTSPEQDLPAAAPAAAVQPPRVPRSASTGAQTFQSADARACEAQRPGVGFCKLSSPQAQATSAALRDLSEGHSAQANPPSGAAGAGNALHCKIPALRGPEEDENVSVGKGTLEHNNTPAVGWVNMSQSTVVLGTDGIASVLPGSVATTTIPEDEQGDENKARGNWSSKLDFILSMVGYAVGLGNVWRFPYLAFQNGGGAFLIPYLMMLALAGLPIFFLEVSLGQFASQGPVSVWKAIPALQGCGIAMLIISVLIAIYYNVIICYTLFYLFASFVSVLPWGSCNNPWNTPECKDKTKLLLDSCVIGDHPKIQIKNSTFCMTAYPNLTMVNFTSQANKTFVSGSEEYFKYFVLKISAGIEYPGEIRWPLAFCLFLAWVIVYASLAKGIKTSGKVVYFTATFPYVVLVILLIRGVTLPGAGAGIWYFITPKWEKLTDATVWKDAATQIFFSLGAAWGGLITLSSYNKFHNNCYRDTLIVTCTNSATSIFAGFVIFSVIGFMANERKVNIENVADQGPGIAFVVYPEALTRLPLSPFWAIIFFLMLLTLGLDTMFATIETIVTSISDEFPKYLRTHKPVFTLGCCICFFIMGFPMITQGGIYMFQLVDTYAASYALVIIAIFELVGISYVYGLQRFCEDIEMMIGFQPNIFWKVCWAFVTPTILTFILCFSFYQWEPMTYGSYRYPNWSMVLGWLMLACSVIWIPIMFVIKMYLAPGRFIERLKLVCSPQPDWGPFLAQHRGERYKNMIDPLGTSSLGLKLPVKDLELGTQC

[2] = biological target: T2, GlyT2 D635E mutant (Rattus norvegicus, UniProt P58295, D635E); assay: as above; assay type: cell-based; conditions: read-out: IC50 (Table S1)
T2 construct: expressed in transfected cells; host or cells: COS7
T2 sequence (P58295 1-799 D635E): T1 sequence (P58295 1-799 S481G) with G481S, D635E

[3] = system: thermal, mechanical, and chemical stimulations; conditions: rat acute pain model; cited from earlier work

IC50 ([1]; read-out: IC50 (Table S1)): 0.075 ± 0.008 µM
IC50 [2]: 0.03 ± 0.004 µM
Compound: N[C@@H](COC(c1cccc(F)c1)c1ccccc1OCc1ccccc1)C(=O)O (stereo partly shown) [ALX1393]
effect of mutation on inhibition of glycine transport ([1]; S481G, 1 μM inhibitor, 25 μM glycine): more reduced inhibition potency for ALX1393 than for ORG25543
effect on thermal, mechanical, and chemical stimulations [3]: antinociceptive effect
